Data taken from patent US20200022370A1, “MICROBIOCIDAL OXADIAZOLE DERIVATIVES” (SYNGENTA PARTICIPATIONS AG, priority 2016, published 2020).
Read-outs that look alike come from different tables or passages of the source.

What was measured:
[1] = tested on: Puccinia recondita f. Sp. Tritici; test: Puccinia recondita f. sp. tritici / wheat / leaf disc preventative (brown rust); type: in vivo; conditions: foliar, read-out: disease control
Experimental: Leaf disks or leaf segments of various plant species are cut from plants grown in a greenhouse. The cut leaf disks or segments are placed in multiwell plates (24-well format) onto water agar. The leaf disks are sprayed with a test solution before (preventative) or after (curative) inoculation. Compounds to be tested are prepared as DMSO solutions (max. 10 mg/ml) which are diluted to the appropriate concentration with 0.025% Tween20 just before spraying. The inoculated leaf disks or segments are incubated under defined conditions (temperature, relative humidity, light, etc.) according to the respective test system. A single evaluation of disease level is carried out 3 to 14 days after inoculation, depending on the pathosystem. Percent disease control relative to the untreated check leaf disks or segments is then calculated.
Example 1: Fungicidal Activity Against Puccinia recondita f. Sp. Tritici/Wheat/Leaf Disc Preventative (Brown Rust)
Wheat leaf segments cv. Kanzler were placed on agar in multiwell plates (24-well format) and sprayed with the Formulated test compound diluted in water. The leaf disks were inoculated with a spore suspension of the fungus 1 day after application. The inoculated leaf segments were incubated at 19° C. and 75% relative humidity (rh) under a light regime of 12 hours light/12 hours darkness in a climate cabinet and the activity of a compound was assessed as percent disease control compared to untreated when an appropriate level of disease damage appears in untreated check leaf segments (7 to 9 days after application).
The following compounds at 200 ppm in the applied Formulation give at least 80% disease control in this test when compared to untreated control leaf disks under the same conditions, which show extensive disease development.

[2] = tested on: Glomerella lacenarium (Colletotrichum lacenarium); test: Glomerella lacenarium (Colletotrichum lacenarium) liquid culture / cucumber / preventative (anthracnose); type: cell-based; conditions: read-out: disease control
Experimental: Mycelia fragments or conidia suspensions of a fungus prepared either freshly from liquid cultures of the fungus or from cryogenic storage, are directly mixed into nutrient broth. DMSO solutions of the test compound (max. 10 mg/ml) are diluted with 0.025% Tween20 by a factor of 50 and 10 μl of this solution is pipetted into a microtiter plate (96-well format). The nutrient broth containing the fungal spores/mycelia fragments is then added to give an end concentration of the tested compound. The test plates are incubated in the dark at 24° C. and 96% relative humidity. The inhibition of fungal growth is determined photometrically after 2 to 7 days, depending on the pathosystem, and percent antifungal activity relative to the untreated check is calculated.
Example 4: Fungicidal Activity Against Glomerella lacenarium (Colletotrichum lacenarium) Liquid Culture/Cucumber/Preventative (Anthracnose)
Conidia of the fungus from cryogenic storage are directly mixed into nutrient broth (PDB-potato dextrose broth). After placing a (DMSO) solution of test compound into a microtiter plate (96-well format), the nutrient broth containing the fungal spores is added. The test plates are incubated at 24° C. and the inhibition of growth is measured photometrically 3 to 4 days after application.
The following compounds at 20 ppm in the applied Formulation give at least 80% disease control in this test when compared to untreated control under the same conditions, which show extensive disease development.

[3] = 200 ppm in the applied formulation, wheat leaf segments cv. Kanzler, inoculated 1 day after application, vs untreated, 7 to 9 days after application
[4] = 20 ppm, liquid culture in PDB, 24° C., inhibition of growth measured photometrically 3 to 4 days after application, vs untreated

Row | Compound | pest or weed control at 200 ppm [1, 3] [%] | inhibition of growth at 20 ppm [2, 4] [%] | further results
1 | CC(C)(C)OC(=O)NC(C(=O)Nc1ccc(-c2noc(C(F)(F)F)n2)cc1)c1ccccc1 (centres unmarked) [Compound 1.18, tert-butyl N-[2-oxo-1-phenyl-2-[4-[5-(trifluoromethyl)-1,2,4-oxadiazol-3-yl]anilino]ethyl] carbamate] | ≥ 80 | – | –
2 | O=C(CF)Nc1ccc(-c2noc(C(F)(F)F)n2)cc1 [Compound 1.19, 2-fluoro-N-[4-[5-(trifluoromethyl)-1,2,4-oxadiazol-3-yl]phenyl]acetamide] | – | – | inhibition of growth at 20 ppm [2]: ≥ 80%; pest or weed control at 200 ppm [1]: ≥ 80%
3 | CC=CC=CC(=O)NC1(C(=O)Nc2ccc(-c3noc(C(F)(F)F)n3)cc2)CCCC(C)C1 (centres unmarked) [Compound 1.21, 1-(hexa-2,4-dienoylamino)-3-methyl-N-[4-[5-(trifluoromethyl)-1,2,4-oxadiazol-3-yl]phenyl]cyclo-hexanecarboxamide] | ≥ 80 | – | –
4 | CC(=O)Nc1ccc(CC(=O)Nc2ccc(-c3noc(C(F)(F)F)n3)cc2)cc1 [Compound 1.26, 2-(4-acetamidophenyl)-N-[4-[5-(trifluoromethyl)-1,2,4-oxadiazol-3-yl]phenyl]acetamide] | ≥ 80 | – | –
5 | O=C(CSc1ccccc1)Nc1ccc(-c2noc(C(F)(F)F)n2)cc1 [Compound 1.44, 2-phenylsulfanyl-N-[4-[5-(trifluoromethyl)-1,2,4-oxadiazol-3-yl]phenyl]acetamide] | ≥ 80 | ≥ 80 | –
6 | O=C(Cc1ccc2c(c1)OCO2)Nc1ccc(-c2noc(C(F)(F)F)n2)nc1 [Compound 1.48, 2-(1,3-benzodioxol-5-yl)-N-[6-[5-(trifluoromethyl)-1,2,4-oxadiazol-3-yl]-3-pyridyl]acetamide] | – | ≥ 80 | –
7 | N#Cc1cc(F)c(C(=O)Nc2ccc(-c3noc(C(F)(F)F)n3)nc2)c(F)c1 [Compound 1.49, 4-cyano-2,6-difluoro-N-[6-[5-(trifluoromethyl)-1,2,4-oxadiazol-3-yl]-3-pyridyl]benzamide] | ≥ 80 | – | –
8 | CON(C)C(=O)Nc1ccc(-c2noc(C(F)(F)F)n2)nc1 [Compound 1.65, 1-methoxy-1-methyl-3-[6-[5-(trifluoromethyl)-1,2,4-oxadiazol-3-yl]-3-pyridyl]urea] | – | ≥ 80 | –
9 | O=C(CCc1ccccc1)Nc1ccc(-c2noc(C(F)(F)F)n2)cc1 [Compound 1.76, 3-phenyl-N-[4-[5-(trifluoromethyl)-1,2,4-oxadiazol-3-yl]phenyl] propanamide] | ≥ 80 | ≥ 80 | –
10 | CC(Oc1ccccc1)C(=O)Nc1ccc(-c2noc(C(F)(F)F)n2)cc1 (centres unmarked) [Compound 1.79, 2-phenoxy-N-[4-[5-(trifluoromethyl)-1,2,4-oxadiazol-3-yl]phenyl] propanamide] | – | ≥ 80 | –
11 | O=C(CC1CC1)Nc1ccc(-c2noc(C(F)(F)F)n2)cc1 [Compound 1.80, 2-cyclopropyl-N-[4-[5-(trifluoromethyl)-1,2,4-oxadiazol-3-yl]phenyl]acetamide] | ≥ 80 | ≥ 80 | –
12 | O=C(Nc1ccc(-c2noc(C(F)(F)F)n2)cc1)C1CSC1 [Compound 1.82, N-[4-[5-(trifluoromethyl)-1,2,4-oxadiazol-3-yl]phenyl]thietane-3-carboxamide] | ≥ 80 | ≥ 80 | –
13 | COC(=O)CCC(=O)Nc1ccc(-c2noc(C(F)(F)F)n2)cc1 [Compound 1.83, methyl 4-oxo-4-[4-[5-(trifluoromethyl)-1,2,4-oxadiazol-3-yl]anilino]butanoate] | ≥ 80 | ≥ 80 | –
14 | O=C(Cc1cccnc1)Nc1ccc(-c2noc(C(F)(F)F)n2)cc1 [Compound 1.84, 2-(3-pyridyl)-N-[4-[5-(trifluoromethyl)-1,2,4-oxadiazol-3-yl]phenyl]acetamide] | ≥ 80 | ≥ 80 | –
15 | C=CCCC(=O)Nc1ccc(-c2noc(C(F)(F)F)n2)cc1 [Compound 1.88, N-[4-[5-(trifluoromethyl)-1,2,4-oxadiazol-3-yl]phenyl]pent-4-enamide] | ≥ 80 | ≥ 80 | –
16 | O=C(Cc1cccs1)Nc1ccc(-c2noc(C(F)(F)F)n2)cc1 [Compound 1.89, 2-(2-thienyl)-N-[4-[5-(trifluoromethyl)-1,2,4-oxadiazol-3-yl]phenyl]acetamide] | ≥ 80 | ≥ 80 | –
17 | C=CCCCCC(=O)Nc1ccc(-c2noc(C(F)(F)F)n2)cc1 [Compound 1.93, N-[4-[5-(trifluoromethyl)-1,2,4-oxadiazol-3-yl]phenyl]hept-6-enamide] | – | ≥ 80 | –
18 | C=CCC(=O)Nc1ccc(-c2noc(C(F)(F)F)n2)cc1 [Compound 1.94, N-[4-[5-(trifluoromethyl)-1,2,4-oxadiazol-3-yl]phenyl]but-3-enamide] | ≥ 80 | ≥ 80 | –
19 | CC(=O)OCC(=O)Nc1ccc(-c2noc(C(F)(F)F)n2)cc1 [Compound 1.95, [2-oxo-2-[4-[5-(trifluoromethyl)-1,2,4-oxadiazol-3-yl]anilino]ethyl] acetate] | ≥ 80 | ≥ 80 | –
20 | O=C(Cc1ccc(C(F)(F)F)nc1)Nc1ccc(-c2noc(C(F)(F)F)n2)cc1 [Compound 1.108, N-[4-[5-(trifluoromethyl)-1,2,4-oxadiazol-3-yl]phenyl]-2-[6-(trifluoromethyl)-3-pyridyl]acetamide] | – | ≥ 80 | –
21 | CC(C)CCC(=O)Nc1ccc(-c2noc(C(F)(F)F)n2)cc1 [Compound 1.110, 4-methyl-N-[4-[5-(trifluoromethyl)-1,2,4-oxadiazol-3-yl]phenyl] pentanamide] | – | ≥ 80 | –
22 | O=C(Cc1cccc(C(F)(F)F)n1)Nc1ccc(-c2noc(C(F)(F)F)n2)cc1 [Compound 1.114, N-[4-[5-(trifluoromethyl)-1,2,4-oxadiazol-3-yl]phenyl]-2-[6-(trifluoromethyl)-2-pyridyl]acetamide] | – | ≥ 80 | –
23 | O=C(Cc1cc(F)cc(F)c1)Nc1ccc(-c2noc(C(F)(F)F)n2)cc1 [Compound 1.117, 2-(3,5-difluorophenyl)-N-[4-[5-(trifluoromethyl)-1,2,4-oxadiazol-3-yl]phenyl]acetamide] | – | ≥ 80 | –
24 | O=C(Cc1ccc(OC(F)(F)F)cc1)Nc1ccc(-c2noc(C(F)(F)F)n2)cc1 [Compound 1.119, 2-[4-(trifluoromethoxy)phenyl]-N-[4-[5-(trifluoromethyl)-1,2,4-oxadiazol-3-yl]phenyl]acetamide] | – | ≥ 80 | –
25 | CN(C(=O)c1ccccc1Cl)c1ccc(-c2noc(C(F)(F)F)n2)cc1 [Compound 1.134, 2-chloro-N-methyl-N-[4-[5-(trifluoromethyl)-1,2,4-oxadiazol-3-yl]phenyl]benzamide] | – | ≥ 80 | –
26 | CCOCC(=O)Nc1ccc(-c2noc(C(F)(F)F)n2)cc1 [Compound 2.10, 2-ethoxy-N-[4-[5-(trifluoromethyl)-1,2,4-oxadiazol-3-yl]phenyl] acetamide] | – | ≥ 80 | –
27 | CC1(C)CC1C(=O)Nc1ccc(-c2noc(C(F)(F)F)n2)cc1 (centres unmarked) [Compound 2.12, 2,2-dimethyl-N-[4-[5-(trifluoromethyl)-1,2,4-oxadiazol-3-yl]phenyl] cyclopropane-carboxamide] | – | ≥ 80 | –
28 | C=CCON(C)C(=O)Nc1ccc(-c2noc(C(F)(F)F)n2)cc1 [Compound 2.21, 1-allyloxy-1-methyl-3-[4-[5-(trifluoromethyl)-1,2,4-oxadiazol-3-yl]phenyl]urea] | – | ≥ 80 | –
29 | O=C(NCC(F)(F)F)Nc1ccc(-c2noc(C(F)(F)F)n2)cc1 [Compound 2.22, 1-(2,2,2-trifluoroethyl)-3-[4-[5-(trifluoromethyl)-1,2,4-oxadiazol-3-yl]phenyl]urea] | – | ≥ 80 | –
30 | CN(C(=O)CC1CC1)c1ccc(-c2noc(C(F)(F)F)n2)cc1 [Compound 2.26, 2-cyclopropyl-N-methyl-N-[4-[5-(trifluoromethyl)-1,2,4-oxadiazol-3-yl]phenyl]acetamide] | – | ≥ 80 | –
